Source: US20090170938A1 (priority 2005, published 2009)

Tested on: Phytophthora infestans
Format: in vivo, Phytophthora infestans on tomato
Settings: active compound application rate 5 ppm; protective spray, tomato; evaluation 3 days after inoculation

CON=C(C(=O)OC)c1ccccc1CO/N=C(\C)c1cccc(C(F)(F)F)c1 [Trifloxystrobin, 2-[α-{[(α-methyl-3-trifluoromethyl-benzyl)imino]-oxy}-o-tolyl]-glyoxylic acid methyl ester O-methyloxime]
% efficacy: 23%
